Source: the NIST ThermoML archive (doi:10.1016/j.tca.2017.09.023)
Several values for one entry are separate records, joined by “and”; a condition that tells them apart may be missing. Equal entries are not always repeated. ± gives the expanded uncertainty stated by the source.

Columns and labels:
[1] = Molar enthalpy of transition or fusion; details: DSC
[2] = for Normal melting temperature: DTA; for Triple point temperature: DSC

Molar enthalpy of transition or fusion ([1]; Crystal 2) [kcal/mol] | Normal melting temperature ([2]; Crystal 1) | Triple point temperature ([2]; Crystal 2) [K] | Molar enthalpy of transition or fusion ([1]; Crystal 3) [kcal/mol] | Triple point temperature ([2]; Crystal 3) [K] | Structure (SMILES) | Molar enthalpy of transition or fusion ([1]; Crystal) [kcal/mol] | Normal melting temperature ([2]; Crystal)
1.03 ± 0.335 | 163.0 ± 1.1 °C | 411.6 ± 1.2 |  |  | Cc1c(C)c(C)c(Br)c(C)c1C [bromopentamethylbenzene] | 3.61 ± 0.359 | 
 |  |  |  |  | Nc1c(Cl)c(Cl)c(Cl)c(Cl)c1Cl [pentachlorobenzenamine] | 4.42 ± 0.311 | 235.4 ± 1.1 °C
 |  |  |  |  | Clc1c(Cl)c(Cl)c(Cl)c(Cl)c1Cl [hexachlorobenzene] | 5.72 ± 0.311 | 230.1 ± 2 °C and 231 ± 1.1 °C
 |  |  |  |  | c1ccc(-c2ccccc2-c2ccccc2)cc1 [o-terphenyl] |  | 57.2 ± 2 °C
0.399 ± 0.335 | 166.1 ± 1.1 °C and 167.5 ± 2 °C | 384.9 ± 1.2 | 0.136 ± 0.335 | 117.4 ± 1.2 | Cc1c(C)c(C)c(C)c(C)c1C [hexamethylbenzene] | 4.91 ± 0.359 | 
